According to patent US6696407B1, “Huntington's disease treatment comprising administering aldose reductase inhibitors to increase striatal CNTF” (The Regents of the University of California, priority 1997, dated 2004):
“Also recorded” adds a separate entry of the source. Marks after values point to notes of the source that are not given here.

Experiments:
Type in all cases: in vivo, rat
[1] = Sciatic nerve water content; settings: for Water: sciatic nerve, Ponalrestat 50 mg/kg daily oral, two months
Procedure: (§1) These studies were conducted with the approval of the San Diego Veterans Administration Animal Studies Subcommittee. Female Sprague-Dawley rats (240-300 g; Charles River, San Diego, Calif.) were housed in cages with wire bottoms to reduce contact with urine and feces. Groups were established and fed either a 40% D-galactose diet or a control diet specially formulated by Purina that contained 40% solka floc, a nonnutritive fiber, to balance nutritional intake. All diets contained 100% of the micronutrients required by rats and, with water, were available ad libitum. Each of these diet groups contained animals that were treated with the ARI, Ponalrestat (50 mg/kg), daily by oral gavage. After two months, rats were anesthetized by intraperitoneal injection (1 ml/kg ip) of pentobarbital sodium (12.5 mg/ml) and diazepam (1.25 mg/ml) in bacteriostatic saline. Under deep anesthesia, motor nerve conduction velocity (MNCV) was measured in the left hindlimb prior to removal of the sciatic nerve. […]
(§2) For determination of water content and dry weight, distal segments of sciatic nerve were lightly blotted, weighed prior to freeze-drying and reweighed. Nerve polyols were measured by gas chromatography with α-methylmannoside as an internal standard (Mizisin et al., (1993) J. Neurol. Sci. 116:67-72) using a Hewlett Packard 5890 gas chromatograph (Hewlett Packard, Avondale, Pa.) fitted with a flame ionization detector and a 25 m×0.2 mm capillary column (Hewlett Packard Ultra 1). Nerve water and polyol contents are expressed as mg and nmol per mg nerve dry weight, respectively.
The effect of two months of galactose feeding and ARI treatment on body weight, nerve water and polyol content, and MNCV is shown in Table 1. Data are presented as mean ±SD (N=8 to 10) and were analyzed with a one way ANOVA after which multiple comparisons were made with the Student-Newman-Keuls test. […] ARI-treated animals received a daily oral gavage (50 mg/kg) of Ponalrestat (ND—Not detected).

CNTF = test: Striatal CNTF levels by ELISA; settings: adult rats, oral 50 mg/kg/day for two months
Procedure: CNTF protein was determined with an ELISA that utilizes a monoclonal capture antibody which recognizes a non-C-terminal epitope on both rat and human CNTF (Regeneron, Tarrytown, N.Y.). The captured CNTF was recognized by a polyclonal rabbit anti-rCNTF reporter antibody. An alkaline phosphatase-tagged goat anti-rabbit IgG was used to generate the signal. In practice, 96-well Immulon plates were coated with capture antibody overnight, then blocked and washed. After overnight incubation of standards and samples, plates were washed and reporter antibody added. Following final washes, the reaction was developed using the GIBCO BRL ELISA amplification system substrate and amplifier. The reaction was stopped with 0.5 N H2SO4 and the plates read at two wavelengths (490 nm and 650 nm).
ARIs Toirestat and Ponalrestat were orally administered to adult rats at a dose of 50 mg/kg/day for two months as described in Example 1 and in Mizisin et al (1997) Diabetes 46: 647-652. For each rat, the left and right striatum were dissected and combined for homogenization in phosphate buffered saline. CNTF levels in extract preparations were then measured by ELISA, as described in Example 1. Four rats served as controls, and five rats each received Tolrestat and Ponalrestat. Five ELISA assays were run for each rat and one mean value derived for each rat.

aldose reductase = test: Sciatic nerve polyol content by gas chromatography
Procedure: These studies were conducted with the approval of the San Diego Veterans Administration Animal Studies Subcommittee. Female Sprague-Dawley rats (240-300 g; Charles River, San Diego, Calif.) were housed in cages with wire bottoms to reduce contact with urine and feces. Groups were established and fed either a 40% D-galactose diet or a control diet specially formulated by Purina that contained 40% solka floc, a nonnutritive fiber, to balance nutritional intake. All diets contained 100% of the micronutrients required by rats and, with water, were available ad libitum. Each of these diet groups contained animals that were treated with the ARI, Ponalrestat (50 mg/kg), daily by oral gavage. After two months, rats were anesthetized by intraperitoneal injection (1 ml/kg ip) of pentobarbital sodium (12.5 mg/ml) and diazepam (1.25 mg/ml) in bacteriostatic saline. Under deep anesthesia, motor nerve conduction velocity (MNCV) was measured in the left hindlimb prior to removal of the sciatic nerve. The proximal portion was processed for subsequent light microscopic examination and the distal portion used for gas chromatographic analysis of nerve polyols. The contralateral sciatic nerve was removed and used for assay of CNTF-like neurotrophic activity and either Northern blot or ELISA analysis of CNTF mRNA or protein, respectively.
as §2
Data are presented as mean ±SD (N=8 to 10) and were analyzed with a one way ANOVA after which multiple comparisons were made with the Student-Newman-Keuls test. Mean dulcitol levels were compared with an unpaired, two-tailed t test. Control and animals received a diet containing 0% D-galactose and galactose animals a diet containing 40% D-galactose for two months.

CNTF mRNA = test: Sciatic nerve CNTF mRNA by Northern blot; settings: control and galactose-fed rats
Procedure: as §1, with “After two months, rats were anesthetized by intraperitoneal injection (1 ml/kg ip) of pentobarbital sodium (12.5 mg/ml) and diazepam (1.25 mg/ml) in bacteriostatic saline.” left out
CNTF mRNA levels in sciatic nerve were obtained by first homogenizing 1 cm segments of nerve on ice for 30 seconds in 4 M guanidine thiocyanate containing 0.1 M β-mercaptoethanol, 25 mM sodium citrate and 0.5% sarcosyl (pH 7.0). […] Autoradiographic bands were quantified using an Ultrascan XL laser densitometer (LKB, Uppsala, Sweden). Ratios of CNTF:GAPDH were determined using optical densities in the linear range for both probes.

[2] = sciatic nerve, 40% D-galactose diet rats, Ponalrestat 50 mg/kg daily oral, two months

O=C(O)Cc1nn(Cc2ccc(Br)cc2F)c(=O)c2ccccc12 [Ponalrestat, 3-(4-bromo-2-fluorobenzyl)-4-oxo-3H-phthalazin-1-ylacetic acid]
Nerve water content (in words) ([1]; galactose-fed rats): restored | Water ([1]; 40% D-galactose diet rats): 1.8 ± 0.3^a mg/mg dry wt | Water ([1]; control diet rats): 1.8 ± 0.1^a mg/mg dry wt | Increase in striatal CNTF activity level versus control group (CNTF): significantly increased; also recorded: approximately three-fold | Dulcitol accumulation (in words) (aldose reductase; galactose-fed rats): attenuated | Nerve myo-inositol content (in words) (aldose reductase; galactose-fed rats): restored | Dulcitol (aldose reductase; [2]): 12.2 ± 3.8 nmol/mg dry wt | myo-Inositol (aldose reductase; [2]): 9.4 ± 1.9^a nmol/mg dry wt | myo-Inositol (aldose reductase; sciatic nerve, control diet rats, Ponalrestat 50 mg/kg daily oral, two months): 12.3 ± 1.5^b nmol/mg dry wt | Level of CNTF message, CNTF:GAPDH ratios (CNTF mRNA): no marked effect
